Assay results as given in ChEMBL document CHEMBL1629502, “Labeling study of avidin by modular method for affinity labeling (MoAL)” (Bioorg Med Chem Lett, 2010).
Active and inactive are the calls of the source. The rule behind the calls is not given here.

Key:
[1] = Binding affinity to avidin at 80 uM by UV-vis spectroscopy
[2] = Binding affinity to avidin by UV-vis spectroscopy
[3] = Binding affinity to avidin at 1.6 mM by UV-vis spectroscopy

SMILES	Activity [1]	other results
CN(C)CC(=O)OCCCCCNC(=O)CCCCCNC(=O)CCCC[C@@H]1SC[C@@H]2NC(=O)N[C@@H]21	Active	
O=C(O)CCCC[C@@H]1SC[C@@H]2NC(=O)N[C@@H]21		Ka [2]: 1e+15 M⁻¹
CN(C)CC(=O)OCCCCCCCCNC(=O)CCCCCNC(=O)CCCC[C@@H]1SC[C@@H]2NC(=O)N[C@@H]21	Active	
CN(C)CC(=O)OCCCCCCNC(=O)CCCCCNC(=O)CCCC[C@@H]1SC[C@@H]2NC(=O)N[C@@H]21	Active	
NCc1ccc(Br)cc1		Activity [2]: Active
CN(C)CC(=O)OCCCCCCCCCCNC(=O)CCCCCNC(=O)CCCC[C@@H]1SC[C@@H]2NC(=O)N[C@@H]21	Active	
CN(C)CC(=O)OCCCCNC(=O)CCCCCNC(=O)CCCC[C@@H]1SC[C@@H]2NC(=O)N[C@@H]21	Active	
CN(C)S(=O)(=O)c1ccc(NCCN)c2nonc12		Activity [2]: Active
COc1nc(Cl)nc(OC)n1		Activity [3]: Active
NCCNC(=O)COc1cc(S(=O)(=O)O)c2ccc3c(S(=O)(=O)O)cc(S(=O)(=O)O)c4ccc1c2c43		Activity [3]: Active
